Results: patent US20100267561A1, “HERBICIDAL PYRIDAZINONE DERIVATIVES” (priority 2007, published 2010)

Key:
Type in all cases: in vivo
rice (Oryza sativa) = test: Test B flooded paddy test plant response
Outline: (§1)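 Paddy-water application to 2-leaf plants in pots held under 3 cm of flooding; response is a 0–100 visual control rating against controls after 13 to 15 days, and a dash marks a missing result.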

[1] = test system: barnyardgrass (Echinochloa crus-galli); test: Test B flooded paddy test plant response
Outline: as §1

[2] = test system: umbrella sedge (Cyperus difformis); test: Test B flooded paddy test plant response
Outline: as §1

[3] = test system: ducksalad (Heteranthera limosa); test: Test B flooded paddy test plant response
Outline: as §1

[4] = test system: velvetleaf (Abutilon theophrasti); test: Test A pre-/postemergence plant response
Outline: (§2)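 Ratings are visual, 0–100, where 100 means complete control and 0 no effect, taken roughly 10 days after treatment by comparison with untreated controls. Formulation: non-phytotoxic solvent mixture with surfactant.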

[5] = test system: giant foxtail (Setaria faberi); test: Test A pre-/postemergence plant response
Outline: as §2

corn (Zea mays) = test: Test A pre-/postemergence plant response
Outline: as §2

[6] = test system: morningglory (Ipomoea coccinea); test: Test A pre-/postemergence plant response
Outline: as §2

[7] = test system: large crabgrass (Digitaria sanguinalis); test: Test A pre-/postemergence plant response
Outline: as §2

[8] = test system: pigweed (Amaranthus retroflexus); test: Test A pre-/postemergence plant response
Outline: as §2

[9] = test system: wheat (Triticum aestivum); test: Test A pre-/postemergence plant response
Outline: as §2

[10] = test system: barnyardgrass (Echinochloa crus-galli); test: Test A pre-/postemergence plant response
Outline: as §2

[11] = Flood (flooded paddy test), 62 g ai/ha, scale 0 to 100, 0 no effect, 100 complete control
[12] = Flood (flooded paddy test), 125 g ai/ha, scale 0 to 100, 0 no effect, 100 complete control
[13] = Flood (flooded paddy test), 250 g ai/ha, scale 0 to 100, 0 no effect, 100 complete control
[14] = Flood, 31 g ai/ha, scale 0 to 100
[15] = Postemergence, 125 g ai/ha, 0 to 100 scale, 0 no effect, 100 complete control
[16] = Postemergence, 500 g ai/ha, 0 to 100 scale, 0 no effect, 100 complete control
[17] = Preemergence, 125 g ai/ha, 0 to 100 scale (0 no effect, 100 complete control)
[18] = Preemergence, 500 g ai/ha, 0 to 100 scale (0 no effect, 100 complete control)
[19] = Postemergence, 31 g ai/ha, 0 to 100 scale (0 no effect, 100 complete control)
[20] = Preemergence, 31 g ai/ha, 0 to 100 scale, 0 is no effect, 100 is complete control

4-[3-(4-chlorophenyl)-5-methyl-1H-pyrazol-3-yl]-5-hydroxy-2-methyl-3(2H)-pyridazinone [Compound 3]
Plant response rating, Rice (rice (Oryza sativa); [11]): 60 | Plant response rating, Rice (rice (Oryza sativa); [12]): 75 | Plant response rating, Rice (rice (Oryza sativa); [13]): 80 | Plant response rating, Rice (rice (Oryza sativa); [14]): 20 | Plant response rating, Barnyardgrass [1, 11]: 60 | Plant response rating, Barnyardgrass [1, 12]: 70 | Plant response rating, Barnyardgrass [1, 13]: 80 | Plant response rating, Barnyardgrass [1, 14]: 0 | Plant response rating, Sedge, Umbrella [2, 11]: 60 | Plant response rating, Sedge, Umbrella [2, 12]: 80 | Plant response rating, Sedge, Umbrella [2, 13]: 80 | Plant response rating, Sedge, Umbrella [2, 14]: 60 | Plant response rating, Ducksalad [3, 11]: 0 | Plant response rating, Ducksalad [3, 12]: 0 | Plant response rating, Ducksalad [3, 13]: 40 | Plant response rating, Ducksalad [3, 14]: 0 | Plant response rating, Velvetleaf [4, 15]: 0 | Plant response rating, Velvetleaf [4, 16]: 50 | Plant response rating, Velvetleaf [4, 17]: 0 | Plant response rating, Velvetleaf [4, 18]: 10 | Plant response rating, Foxtail, Giant [5, 15]: 100 | Plant response rating, Foxtail, Giant [5, 16]: 100 | Plant response rating, Foxtail, Giant [5, 17]: 100 | Plant response rating, Foxtail, Giant [5, 18]: 100 | Plant response rating, Corn (corn (Zea mays); [15]): 90 | Plant response rating, Corn (corn (Zea mays); [16]): 100 | Plant response rating, Corn (corn (Zea mays); [17]): 80 | Plant response rating, Corn (corn (Zea mays); [18]): 90 | Plant response rating, Morningglory [6, 15]: 50 | Plant response rating, Morningglory [6, 16]: 60 | Plant response rating, Morningglory [6, 17]: 0 | Plant response rating, Morningglory [6, 18]: 0 | Plant response rating, Crabgrass, Large [7, 15]: 100 | Plant response rating, Crabgrass, Large [7, 16]: 100 | Plant response rating, Crabgrass, Large [7, 17]: 100 | Plant response rating, Crabgrass, Large [7, 18]: 100 | Plant response rating, Pigweed [8, 15]: 0 | Plant response rating, Pigweed [8, 16]: 10 | Plant response rating, Pigweed [8, 17]: 0 | Plant response rating, Pigweed [8, 18]: 0 | Plant response rating, Wheat [9, 15]: 70 | Plant response rating, Wheat [9, 16]: 90 | Plant response rating, Wheat [9, 17]: 70 | Plant response rating, Wheat [9, 18]: 90 | Plant response rating, Barnyardgrass [10, 15]: 100 | Plant response rating, Barnyardgrass [10, 16]: 100 | Plant response rating, Barnyardgrass [10, 17]: 90 | Plant response rating, Barnyardgrass [10, 18]: 100

Cc1nn(C)c(=O)c(-n2nc(-c3ccc(Br)cc3)cc2C)c1O [Compound 81]
Plant response rating, Rice (rice (Oryza sativa); [11]): 0 | Plant response rating, Rice (rice (Oryza sativa); [12]): 0 | Plant response rating, Rice (rice (Oryza sativa); [13]): 0 | Plant response rating, Rice (rice (Oryza sativa); [14]): 0 | Plant response rating, Barnyardgrass [1, 11]: 0 | Plant response rating, Barnyardgrass [1, 12]: 0 | Plant response rating, Barnyardgrass [1, 13]: 0 | Plant response rating, Barnyardgrass [1, 14]: 0 | Plant response rating, Sedge, Umbrella [2, 11]: 0 | Plant response rating, Sedge, Umbrella [2, 12]: 0 | Plant response rating, Sedge, Umbrella [2, 13]: 0 | Plant response rating, Sedge, Umbrella [2, 14]: 0 | Plant response rating, Ducksalad [3, 11]: 0 | Plant response rating, Ducksalad [3, 12]: 0 | Plant response rating, Ducksalad [3, 13]: 0 | Plant response rating, Ducksalad [3, 14]: 0 | Plant response rating, Foxtail, Giant [5, 19]: 80 | Plant response rating, Foxtail, Giant [5, 15]: 100 | Plant response rating, Foxtail, Giant [5, 20]: 80 | Plant response rating, Foxtail, Giant [5, 17]: 100 | Plant response rating, Corn (corn (Zea mays); [19]): 30 | Plant response rating, Corn (corn (Zea mays); [15]): 100 | Plant response rating, Corn (corn (Zea mays); [20]): 30 | Plant response rating, Corn (corn (Zea mays); [17]): 50 | Plant response rating, Crabgrass, Large [7, 19]: 90 | Plant response rating, Crabgrass, Large [7, 15]: 100 | Plant response rating, Crabgrass, Large [7, 20]: 70 | Plant response rating, Crabgrass, Large [7, 17]: 100 | Plant response rating, Pigweed [8, 19]: 0 | Plant response rating, Pigweed [8, 15]: 0 | Plant response rating, Pigweed [8, 20]: 0 | Plant response rating, Pigweed [8, 17]: 0 | Plant response rating, Wheat [9, 19]: 0 | Plant response rating, Wheat [9, 15]: 70 | Plant response rating, Wheat [9, 20]: 20 | Plant response rating, Wheat [9, 17]: 50 | Plant response rating, Barnyardgrass [10, 19]: 90 | Plant response rating, Barnyardgrass [10, 15]: 100 | Plant response rating, Barnyardgrass [10, 20]: 70 | Plant response rating, Barnyardgrass [10, 17]: 100
